Among the data in patent US20220251109A1, “OXAAZAQUINAZOLINE-7(8H)-KETONE COMPOUND, PREPARATION METHOD THEREFOR AND PHARMACEUTICAL APPLICATION THEREOF” (GENFLEET THERAPEUTICS (SHANGHAI) INC., priority 2019, published 2022) are IC50 values, retold here.

Bounds are passed on as bounds.

Experiment [1] has as its system NCI-H358 cells (Kras G12C mutation). The experiment in a line: Cell proliferation inhibition experiment, 3D model, CellTiter-Glo (NCI-H358). It is filed as cell-based, human. Particulars: NCI-H358, 3D sphere plate, 5 days, 2% FBS. How it is done: (§1) NCI-H358 was a human non-small cell lung cancer cell line with Kras G12C mutation, cultured in 10% FBS RPMI-1640 medium; A549 was a human lung adenocarcinoma cell line with Kras G12S mutation, cultured in 10% FBS F-12K medium. The cells in the logarithmic growth phase was taken, digested with trypsin EDTA, collected and counted, and H358 was adjusted to 1.8E4 cells/ml using 2% FBS RPMI-1640 medium, and A549 was adjusted to 8.9E3 cells/ml using 2% FBS F-12K medium; 800 (45 μl) H358 or 400 (45 μl) A549 cells were seeded in a 384-well sphere plate respectively, cultured overnight to establish a 3D cell model. DMSO was used to prepare 1000× compound 3.16-fold gradient concentration stock solution, and 2% FBS medium was used to dilute 100-fold to 10× compound stock solution. On the second day after cell seeding, 5 μl 10× compound stock solution was added to each cell culture well, the final concentration was 1×, and DMSO content was 0.1%. DMSO was used as the experimental control (control) and 2% FBS medium as the blank control (blank). After the compound and cells were added and cultured for 5 days, 25 μl CellTiter-Glo working solution was added to each well, mixed at 400 rpm and incubated for 30 minutes. After 30 minutes at room temperature, 40 μl of the mixture was transferred to a 384-well plate with a non-transparent white bottom, the luminescence chemiluminescence value was read, and the cells proliferation inhibition rate IR (%)=(RLU control-RLU compound)/(RLU control-RLU blank)×100% was calculated, Prism 6 four-parameter method was used to fit the compound's gradient dilution concentration and the corresponding cell proliferation inhibition rate, and the IC50 value was calculate.
Background: Cellular ATP, detected with luciferase, serves as a proxy for viable cell number.

For experiment [2], the system named is A549 cells (Kras G12S mutation). Put plainly: Cell proliferation inhibition experiment, 3D model, CellTiter-Glo (A549). Conditions: A549, 3D sphere plate, 5 days, 2% FBS. It is filed as cell-based, human. How it is done:
as §1

As a reminder, the IC50 is the point on the concentration scale where inhibition reaches its midpoint. Higher therefore signals weaker potency. In the case of `C=CC(=O)N1CCN2c3nc(=O)n(-c4c(C)ccnc4C(C)C)c4cc(-c5c(C)ccc6[nH]ncc56)cc(c34)OC[C@@H]2C1` (atropisomer, axis not shown) [Compound Z19-1], the values for the IC50 in experiment [1] and in experiment [2] were 321 nM and 6.99 µM, respectively.

Regarding `C=CC(=O)N1CCN2c3nc(=O)n(-c4c(C)ccnc4C(C)C)c4nc(-c5c(O)cccc5F)cc(c34)OC[C@H]2C1` (atropisomer, axis not shown) [Compound Z25-2], the half-inhibitory concentration (IC50) in experiment [1] is 281 nM; in experiment [2] it was more than 10 µM.

As for `C=CC(=O)N1CCN2c3nc(=O)n(-c4c(C)ccnc4C(C)C)c4nc(-c5ccc(F)cc5F)c(Cl)c(c34)OC[C@@H]2C1` (atropisomer, axis not shown) [Compound Z49-2], the figures for the IC50 in experiment [1] and in experiment [2] were 113 nM and more than 10 µM, respectively.

Take `C=CC(=O)N1CCN2c3nc(=O)n(-c4c(C)ccnc4C(C)C)c4nc(-c5cccc(C(F)(F)F)c5F)c(Cl)c(c34)OC[C@@H]2C1` (atropisomer, axis not shown) [Compound Z57-1]: the values for the half-inhibitory concentration (IC50) in experiment [1] and in experiment [2] were 111 nM and more than 10 µM, respectively.

In the case of `C=CC(=O)N1CCN2c3nc(=O)n(-c4c(C)ccnc4C(C)C)c4nc(-c5c(O)cccc5F)c(Cl)c(c34)OC[C@H]2C1` (single isomer, unassigned) [Compound Z23-2], the IC50 was 21 nM in experiment [1] and more than 10 µM in experiment [2].

Regarding `C=CC(=O)N1CCN2c3nc(=O)n(-c4c(C)ccnc4C(C)C)c4nc(-c5c(O)cccc5F)cc(c34)OC[C@H]2C1` (single isomer, unassigned) [Compound Z25-1], the IC50 in experiment [1] was 46 nM; in experiment [2], more than 10 µM.

As for `C=CC(=O)N1CCN2c3nc(=O)n(-c4c(C)ccnc4C(C)C)c4cc(-c5c(O)cccc5F)c(Cl)c(c34)OC[C@H]2C1` (single isomer, unassigned) [Compound Z29-3], the 50% inhibitory concentration (IC50) in experiment [1] is 165 nM; in experiment [2], more than 10 µM.

As for `C=CC(=O)N1CCN2c3nc(=O)n(-c4c(C)ncnc4C(C)C)c4cc(-c5c(C)ccc6[nH]ncc56)c(Cl)c(c34)OC[C@@H]2C1` (single isomer, unassigned) [Compound Z45-1], the IC50 in experiment [1] was 3 nM; in experiment [2] (Homo sapiens, A549, 120 h), more than 10 µM.

For `C=CC(=O)N1CCN2c3nc(=O)n(-c4c(C)ncnc4C(C)C)c4cc(-c5c(C)ccc6[nH]ncc56)c(Cl)c(c34)OC[C@@H]2C1` (single isomer, unassigned) [Compound Z45-4], the half-maximal inhibitory concentration (IC50) in experiment [1] is 65 nM; in experiment [2] it was more than 10 µM.

For `C=CC(=O)N1CCN2c3nc(=O)n(-c4c(C)ccnc4C(C)C)c4nc(-c5ccccc5F)c(Cl)c(c34)OC[C@@H]2C1` (single isomer, unassigned) [Compound Z46-1], the IC50 was 89 nM in experiment [1] and 8.37 µM in experiment [2] (Homo sapiens, A549, 120 h).

For `[2H]C([2H])([2H])Oc1cccc(F)c1-c1nc2c3c(nc(=O)n2-c2c(C)ccnc2C(C)C)N2CCN(C(=O)C=C)C[C@@H]2COc3c1F` (single isomer, unassigned) [Compound Z100-2], the IC50 in experiment [1] was 31 nM; in experiment [2] it was more than 10 µM.

Regarding `C=CC(=O)N1CCN2c3nc(=O)n(-c4c(C#N)cnn4C(C)(C)C)c4nc(-c5ccccc5F)c(Cl)c(c34)OC[C@H]2C1` (single isomer, unassigned) [Compound Z109-2], the concentration for half-maximal inhibition (IC50) in experiment [1] amounted to 106 nM; in experiment [2] it was 9.78 µM.

In the case of `C=CC(=O)N1CCN2c3nc(=O)n(-c4ccccc4C(C)C)c4cc(-c5c(C)ccc6[nH]ncc56)c(Cl)c(c34)OCC2C1` (stereo not drawn) [Compound Z1], the 50% inhibitory concentration (IC50) in experiment [1] (Homo sapiens, NCI-H358, 120 h) came out at 2 nM; in experiment [2] (Homo sapiens, A549, 120 h) it was 7.45 µM.

With `C=CC(=O)N1CCN2c3nc(=O)n(-c4c(C)ccnc4C(C)C)c4cc(-c5c(O)cccc5F)cc(c34)OC[C@@H]2C1` [Compound Z15, (S)-2-acryloyl-10-(2-fluoro-6-hydroxyphenyl)-8-(2-isopropyl-4-methylpyridin-3-yl)-1,2,3,4,13,13a-hexahydropyrazino[2′,1′:3,4][1,4]oxazepine[5,6,7-de]quinazolin-7 (8H)-one], the IC50 in experiment [1] is 36 nM; in experiment [2] it was more than 10 µM.

On to `C=CC(=O)N1CCN2c3nc(=O)n(-c4c(C)ccnc4C(C)C)c4cc(-c5c(C)ccc6[nH]ncc56)cc(c34)OC[C@H]2C1` [Compound Z18, (R)-2-acryloyl-8-(2-isopropyl-4-methylpyridin-3-yl)-10-(5-methyl-1H-indazol-4-yl)-1,2,3,4,13,13a-hexahydropyrazino[2′,1′:3,4][1,4]oxazepine[5,6,7-de]quinazolin-7 (8H)-one], for which the concentration for half-maximal inhibition (IC50) in experiment [1] (Homo sapiens, NCI-H358, 120 h) worked out at 107 nM; in experiment [2] (Homo sapiens, A549, 120 h), 12.4 µM.

Turning to `C=CC(=O)N1CCN2c3nc(=O)n(-c4c(C)ccnc4C(C)C)c4cc(-c5c(C)ccc6[nH]ncc56)cc(c34)OC[C@@H]2C1` [Compound Z19, (S)-2-acryloyl-8-(2-isopropyl-4-methylpyridin-3-yl)-10-(5-methyl-1H-indazol-4-yl)-1,2,3,4,13,13a-hexahydropyrazino[2′,1′:3,4][1,4]oxazepine[5,6,7-de]quinazolin-7 (8H)-one], the IC50 is 68 nM in experiment [1] and 46.4 µM in experiment [2].

In the case of `C=CC(=O)N1CCN2c3nc(=O)n(C4CC4)c4cc(-c5c(C)ccc6[nH]ncc56)cc(c34)OCCC2C1` (stereo not drawn) [Compound Z21, 2-acryloyl-8-cyclopropyl-10-(5-methyl-1H-indazol-4-yl)-1,3,4,13,14,14a-hexa hydro-2H-pyrazino[1′,2′:5,6][1,5]oxazolidine[4,3,2-de]quinazolin-7 (8H)-one], the IC50 was 283 nM in experiment [1] (Homo sapiens, NCI-H358, 120 h) and more than 10 µM in experiment [2] (Homo sapiens, A549, 120 h).

Regarding `C=CC(=O)N1CCN2c3nc(=O)n(-c4c(C)ccnc4C(C)C)c4cc(-c5c(C)ccc6[nH]ncc56)cc(c34)OCCC2C1` (stereo not drawn) [Compound Z22], the concentration for half-maximal inhibition (IC50) in experiment [1] (Homo sapiens, NCI-H358, 120 h) was 118 nM; in experiment [2] (Homo sapiens, A549, 120 h), more than 10 µM.

In the case of `C=CC(=O)N1CCN2c3nc(=O)n(-c4c(C)ccnc4C(C)C)c4nc(-c5c(O)cccc5F)c(Cl)c(c34)OC[C@H]2C1` [Compound Z23, (5aR)-7-acryloyl-3-chloro-2-(2-fluoro-6-hydroxyphenyl)-12-(2-isopropyl-4-methylpyridin-3-yl)-5,5a,6,7,8,9-hexahydro-4-oxo-1,7,9a,10,12-pentazabenzo[4,5] cyclohepta[1,2,3-de]naphthalen-11 (12H)-one], the IC50 in experiment [1] (Homo sapiens, NCI-H358, 120 h) was 2 nM; in experiment [2] (Homo sapiens, A549, 120 h), more than 10 µM.

Consider `C=CC(=O)N1CCN2c3nc(=O)n(-c4c(C)ccnc4C(C)C)c4nc(-c5c(O)cccc5F)cc(c34)OC[C@H]2C1` [Compound Z25, (R)-7-acryloyl-2-(2-fluoro-6-hydroxyphenyl)-12-(2-isopropyl-4-methylpyridin-3-yl)-5,5a,6,7,8,9-hexahydro-4-oxo-1,7,9a,10,12-pentazabenzo[4,5]cyclohepta[1,2,3-de]naphthalen-11 (12H)-one], for which the IC50 in experiment [1] was 94 nM; in experiment [2] it was 24.2 µM.

Consider `C=CC(=O)N1CCN2c3nc(=O)n(C4CC4)c4cc(-c5c(O)cccc5F)cc(c34)OCCC2C1` (stereo not drawn) [Compound Z28], for which the 50% inhibitory concentration (IC50) in experiment [1] (Homo sapiens, NCI-H358, 120 h) was 184 nM; in experiment [2] (Homo sapiens, A549, 120 h) it was more than 10 µM.

For the compound `C=CC(=O)N1CCN2c3nc(=O)n(CC(C)C)c4cc(-c5c(O)cccc5F)c(Cl)c(c34)OC[C@@H]2C1` [Compound Z32], the IC50 in experiment [1] (Homo sapiens, NCI-H358, 120 h) was found to be 308 nM; in experiment [2] (Homo sapiens, A549, 120 h), 23.5 µM.

With `C=CC(=O)N1CCN2c3nc(=O)n(-c4c(C)ccnc4C(C)C)c4cc(-c5ncccc5F)c(Cl)c(c34)OC[C@@H]2C1` [Compound Z35], the half-maximal inhibitory concentration (IC50) in experiment [1] (Homo sapiens, NCI-H358, 120 h) was 164 nM; in experiment [2] (Homo sapiens, A549, 120 h), more than 10 µM.

`C=CC(=O)N1CCN2c3nc(=O)n(CC4CC4)c4cc(-c5c(O)cccc5F)c(Cl)c(c34)OC[C@@H]2C1` [Compound Z37-2]: the IC50 in experiment [1] (Homo sapiens, NCI-H358, 120 h) is 276 nM; in experiment [2] (Homo sapiens, A549, 120 h), 29.5 µM.

As to `C=CC(=O)N1CCN2c3nc(=O)n(-c4c(C)ccnc4C(C)C)c4nc(-c5cccc(F)c5)c(Cl)c(c34)OC[C@@H]2C1` [Compound Z48], the IC50 in experiment [1] (Homo sapiens, NCI-H358, 120 h) was 22 nM; in experiment [2] (Homo sapiens, A549, 120 h), more than 10 µM.

With `C=CC(=O)N1CCN2c3nc(=O)n(-c4c(C)ccnc4C(C)C)c4nc(-c5ccc(F)cc5)c(Cl)c(c34)OC[C@@H]2C1` [Compound Z50], the IC50 is 50 nM in experiment [1] (Homo sapiens, NCI-H358, 120 h) and more than 10 µM in experiment [2] (Homo sapiens, A549, 120 h).

As for `C=CC(=O)N1CCN2c3nc(=O)n(-c4c(C)ccnc4C(C)C)c4nc(-c5cc(F)cc(F)c5O)c(Cl)c(c34)OC[C@@H]2C1` [Compound Z54], the IC50 in experiment [1] (Homo sapiens, NCI-H358, 120 h) is 66 nM; in experiment [2] (Homo sapiens, A549, 120 h) it was more than 10 µM.

With `C=CC(=O)N1CCN2c3nc(=O)n(-c4c(C)ccnc4C(C)C)c4nc(-c5c(F)cc(F)cc5F)c(Cl)c(c34)OC[C@@H]2C1` [Compound Z56], the half-maximal inhibitory concentration (IC50) in experiment [1] (Homo sapiens, NCI-H358, 120 h) is 11 nM; in experiment [2] (Homo sapiens, A549, 120 h), more than 10 µM.

Take `C=CC(=O)N1CCN2c3nc(=O)n(-c4c(C)ccnc4C(C)C)c4nc(-c5ccccc5C(C)C)c(Cl)c(c34)OC[C@@H]2C1` [Compound Z62]: the half-maximal inhibitory concentration (IC50) in experiment [1] (Homo sapiens, NCI-H358, 120 h) is 6 nM; in experiment [2] (Homo sapiens, A549, 120 h) it was more than 10 µM.

For the compound `C=CC(=O)N1CCN2c3nc(=O)n(-c4c(C)ccnc4C(C)C)c4nc(-c5ccncc5F)c(Cl)c(c34)OC[C@@H]2C1` [Compound Z69], the IC50 in experiment [1] (Homo sapiens, NCI-H358, 120 h) was 95 nM; in experiment [2] (Homo sapiens, A549, 120 h), more than 10 µM.
